In ChEMBL document CHEMBL1221276, “Structure-based design, synthesis, and biological evaluation of lipophilic-tailed monocationic inhibitors of neuronal nitric oxide synthase” (Bioorg Med Chem, 2010) one finds Ki data, which are given here for 6 compounds.

The target in one assay is Nitric oxide synthase 1 (Rattus norvegicus, UniProt P29476). The assay is described as follows: Inhibition of rat recombinant nNOS expressed in Escherichia coli by hemoglobin capture assay.
The target of another assay is T1, Nitric oxide synthase 3 (Bos taurus, UniProt P29473).
T1 sequence (P29473 whole entry): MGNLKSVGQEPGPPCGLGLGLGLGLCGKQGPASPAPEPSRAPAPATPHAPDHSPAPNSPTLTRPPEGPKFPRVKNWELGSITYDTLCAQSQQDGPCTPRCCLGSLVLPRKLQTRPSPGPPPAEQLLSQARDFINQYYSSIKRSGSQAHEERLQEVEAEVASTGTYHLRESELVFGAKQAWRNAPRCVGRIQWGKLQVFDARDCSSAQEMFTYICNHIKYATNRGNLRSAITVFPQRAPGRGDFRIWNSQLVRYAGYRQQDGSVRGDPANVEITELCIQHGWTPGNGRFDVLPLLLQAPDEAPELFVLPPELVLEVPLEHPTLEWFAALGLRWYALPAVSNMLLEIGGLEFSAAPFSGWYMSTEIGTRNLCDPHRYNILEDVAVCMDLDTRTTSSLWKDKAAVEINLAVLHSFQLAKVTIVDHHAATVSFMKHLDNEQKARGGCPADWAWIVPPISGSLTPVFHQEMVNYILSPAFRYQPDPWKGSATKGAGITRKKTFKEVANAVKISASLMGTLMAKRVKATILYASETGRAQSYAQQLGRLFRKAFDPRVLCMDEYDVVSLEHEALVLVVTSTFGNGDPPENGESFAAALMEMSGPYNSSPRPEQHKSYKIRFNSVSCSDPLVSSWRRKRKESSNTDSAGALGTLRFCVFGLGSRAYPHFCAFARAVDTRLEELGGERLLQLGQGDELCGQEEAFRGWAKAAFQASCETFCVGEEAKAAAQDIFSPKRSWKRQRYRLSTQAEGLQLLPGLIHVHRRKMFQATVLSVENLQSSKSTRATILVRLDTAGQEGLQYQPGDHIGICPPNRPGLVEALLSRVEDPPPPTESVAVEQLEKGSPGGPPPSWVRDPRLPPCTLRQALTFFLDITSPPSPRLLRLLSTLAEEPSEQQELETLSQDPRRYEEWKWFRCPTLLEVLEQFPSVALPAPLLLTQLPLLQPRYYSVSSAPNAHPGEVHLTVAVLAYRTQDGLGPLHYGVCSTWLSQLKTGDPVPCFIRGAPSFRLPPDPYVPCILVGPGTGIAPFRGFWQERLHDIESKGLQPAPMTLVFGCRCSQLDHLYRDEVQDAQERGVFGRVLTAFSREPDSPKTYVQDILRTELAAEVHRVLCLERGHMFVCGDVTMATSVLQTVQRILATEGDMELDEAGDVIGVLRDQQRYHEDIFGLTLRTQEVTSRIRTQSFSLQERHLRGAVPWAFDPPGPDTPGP
The assay is described as follows: Inhibition of bovine recombinant eNOS expressed in Escherichia coli by hemoglobin capture assay.

For assay [1], the target named is T2, Nitric oxide synthase, inducible (Mus musculus, UniProt P29477).
T2 sequence (P29477 whole entry): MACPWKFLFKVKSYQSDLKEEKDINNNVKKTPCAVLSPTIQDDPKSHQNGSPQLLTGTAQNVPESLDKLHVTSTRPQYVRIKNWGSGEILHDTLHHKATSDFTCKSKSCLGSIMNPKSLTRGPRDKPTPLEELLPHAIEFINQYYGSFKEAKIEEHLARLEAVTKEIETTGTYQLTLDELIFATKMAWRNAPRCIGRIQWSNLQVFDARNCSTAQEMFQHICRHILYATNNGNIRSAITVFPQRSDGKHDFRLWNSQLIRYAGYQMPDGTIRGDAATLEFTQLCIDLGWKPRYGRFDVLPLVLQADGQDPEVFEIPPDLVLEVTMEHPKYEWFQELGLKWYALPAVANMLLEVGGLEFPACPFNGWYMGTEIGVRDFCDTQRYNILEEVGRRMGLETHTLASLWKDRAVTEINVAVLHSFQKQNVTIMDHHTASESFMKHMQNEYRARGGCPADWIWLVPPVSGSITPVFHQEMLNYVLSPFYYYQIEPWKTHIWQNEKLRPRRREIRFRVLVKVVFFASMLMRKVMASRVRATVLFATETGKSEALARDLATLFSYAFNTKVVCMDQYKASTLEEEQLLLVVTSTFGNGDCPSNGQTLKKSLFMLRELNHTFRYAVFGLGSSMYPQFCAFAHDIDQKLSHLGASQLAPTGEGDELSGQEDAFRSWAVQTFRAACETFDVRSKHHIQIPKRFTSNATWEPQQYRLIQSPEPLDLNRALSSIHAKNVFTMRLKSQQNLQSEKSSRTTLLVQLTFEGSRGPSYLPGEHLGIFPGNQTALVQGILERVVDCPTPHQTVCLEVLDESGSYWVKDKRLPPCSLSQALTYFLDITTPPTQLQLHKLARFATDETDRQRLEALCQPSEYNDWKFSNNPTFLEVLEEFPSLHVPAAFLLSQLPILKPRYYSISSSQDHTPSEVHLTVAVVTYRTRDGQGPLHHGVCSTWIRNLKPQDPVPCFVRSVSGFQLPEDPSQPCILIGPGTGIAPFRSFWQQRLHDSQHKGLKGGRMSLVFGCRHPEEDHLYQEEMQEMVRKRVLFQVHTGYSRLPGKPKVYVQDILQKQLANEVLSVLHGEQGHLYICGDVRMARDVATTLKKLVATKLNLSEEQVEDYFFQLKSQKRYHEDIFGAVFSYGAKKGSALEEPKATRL
Briefly: Inhibition of mouse recombinant iNOS expressed in Escherichia coli by hemoglobin capture assay.

Chain of Nitric oxide synthase 1 (P29476 whole entry): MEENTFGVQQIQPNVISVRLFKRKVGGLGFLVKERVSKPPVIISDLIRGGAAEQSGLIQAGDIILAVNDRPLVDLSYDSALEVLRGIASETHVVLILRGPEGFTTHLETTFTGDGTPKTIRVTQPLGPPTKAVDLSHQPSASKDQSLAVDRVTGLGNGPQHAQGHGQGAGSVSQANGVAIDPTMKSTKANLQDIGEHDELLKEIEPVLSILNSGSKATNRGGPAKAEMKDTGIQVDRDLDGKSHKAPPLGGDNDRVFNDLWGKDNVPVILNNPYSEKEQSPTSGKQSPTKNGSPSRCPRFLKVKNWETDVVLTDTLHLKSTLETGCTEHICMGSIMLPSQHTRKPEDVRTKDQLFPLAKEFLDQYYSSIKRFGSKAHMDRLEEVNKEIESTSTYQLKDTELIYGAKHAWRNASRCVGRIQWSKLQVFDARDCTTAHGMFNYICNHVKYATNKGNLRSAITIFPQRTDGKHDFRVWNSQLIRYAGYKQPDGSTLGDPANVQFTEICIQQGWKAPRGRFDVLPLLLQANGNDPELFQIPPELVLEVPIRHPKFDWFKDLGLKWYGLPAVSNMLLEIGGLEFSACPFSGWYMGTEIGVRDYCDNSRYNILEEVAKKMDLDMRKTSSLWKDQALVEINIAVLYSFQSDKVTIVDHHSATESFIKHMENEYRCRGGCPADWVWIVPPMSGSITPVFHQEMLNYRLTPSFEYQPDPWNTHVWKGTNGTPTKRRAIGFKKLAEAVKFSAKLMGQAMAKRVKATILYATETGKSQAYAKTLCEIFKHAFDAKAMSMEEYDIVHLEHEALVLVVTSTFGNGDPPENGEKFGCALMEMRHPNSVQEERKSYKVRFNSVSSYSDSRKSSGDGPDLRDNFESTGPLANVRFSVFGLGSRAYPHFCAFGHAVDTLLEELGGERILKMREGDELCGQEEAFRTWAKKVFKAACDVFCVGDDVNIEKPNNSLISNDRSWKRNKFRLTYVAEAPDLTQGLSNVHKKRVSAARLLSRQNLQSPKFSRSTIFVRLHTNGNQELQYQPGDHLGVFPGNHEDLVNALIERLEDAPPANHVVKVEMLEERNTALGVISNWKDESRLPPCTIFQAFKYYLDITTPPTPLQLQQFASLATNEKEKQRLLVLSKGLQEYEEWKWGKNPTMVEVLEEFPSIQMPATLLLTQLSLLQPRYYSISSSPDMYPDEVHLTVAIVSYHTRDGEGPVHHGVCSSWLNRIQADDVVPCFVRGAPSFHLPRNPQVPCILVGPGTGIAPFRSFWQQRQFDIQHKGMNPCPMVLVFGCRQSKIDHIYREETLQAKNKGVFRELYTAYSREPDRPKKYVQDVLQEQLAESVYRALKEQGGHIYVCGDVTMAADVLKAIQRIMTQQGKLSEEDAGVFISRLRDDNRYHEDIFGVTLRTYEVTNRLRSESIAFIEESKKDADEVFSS

For the compound `Nc1cccc(C[C@@H]2CNC[C@@H]2Oc2cccc(Oc3ccccc3)c2)n1` (racemic), the inhibition constant Ki at Nitric oxide synthase 1 was 3 µM.

Turning to `Cc1cc(N)nc(C[C@@H]2CNC[C@@H]2OCc2ccc(-c3cccc(F)c3)cc2)c1` (racemic), the inhibition constant Ki at Nitric oxide synthase 1 amounted to 0.75 µM; on Nitric oxide synthase 3, 13.3 µM; in assay [1], 39.5 µM.

As for `Cc1cc(N)nc(C[C@@H]2CNC[C@@H]2OCc2ccc(-c3cccc(Cl)c3)cc2)c1` (racemic), the Ki on Nitric oxide synthase 1 came out at 1.2 µM; at Nitric oxide synthase 3 it was 26 µM; in assay [1], 55.6 µM.

As for `Cc1cc(N)nc(C[C@@H]2CNC[C@@H]2OCc2ccc(-c3cccc(C(F)(F)F)c3)cc2)c1` (racemic), the Ki at Nitric oxide synthase 3 is 13.6 µM; in assay [1], 37.3 µM.

As to `Cc1cc(N)nc(C[C@@H]2CNC[C@@H]2OCc2ccc(-c3ccc(F)c(C)c3)cc2)c1` (racemic), the inhibitory constant (Ki) on Nitric oxide synthase 1 was found to be 0.62 µM; in assay [1], 22.1 µM.

As to `Cc1cc(N)nc(C[C@@H]2CNC[C@@H]2OCc2ccc(-c3ccc(F)c(Cl)c3)cc2)c1` (racemic), on Nitric oxide synthase 1, the Ki worked out at 0.76 µM.
